Test results from patent US9181223B2, “2-aminopyrimidin-6-ones and analogs exhibiting anti-cancer and anti-proliferative activities” (Deciphera Pharmaceuticals, LLC, priority 2013, dated 2015).
pIC50: −log10 of the molar value. Like-named read-outs stand apart in the source and are kept apart here. One block for each compound: values may come before it.

Legend:
[1] = molecular target: T1, unphosphorylated c-KIT kinase (uKIT, Seq. ID no. 2) (Homo sapiens, UniProt P10721); assay: uKit kinase assay (ADP production coupled to pyruvate kinase/lactate dehydrogenase); format: biochemical; conditions: read-out: uKIT
T1 construct: uKit with N-terminal GST fusion used for screening
T1 sequence (P10721 with tags, fused parts or gaps): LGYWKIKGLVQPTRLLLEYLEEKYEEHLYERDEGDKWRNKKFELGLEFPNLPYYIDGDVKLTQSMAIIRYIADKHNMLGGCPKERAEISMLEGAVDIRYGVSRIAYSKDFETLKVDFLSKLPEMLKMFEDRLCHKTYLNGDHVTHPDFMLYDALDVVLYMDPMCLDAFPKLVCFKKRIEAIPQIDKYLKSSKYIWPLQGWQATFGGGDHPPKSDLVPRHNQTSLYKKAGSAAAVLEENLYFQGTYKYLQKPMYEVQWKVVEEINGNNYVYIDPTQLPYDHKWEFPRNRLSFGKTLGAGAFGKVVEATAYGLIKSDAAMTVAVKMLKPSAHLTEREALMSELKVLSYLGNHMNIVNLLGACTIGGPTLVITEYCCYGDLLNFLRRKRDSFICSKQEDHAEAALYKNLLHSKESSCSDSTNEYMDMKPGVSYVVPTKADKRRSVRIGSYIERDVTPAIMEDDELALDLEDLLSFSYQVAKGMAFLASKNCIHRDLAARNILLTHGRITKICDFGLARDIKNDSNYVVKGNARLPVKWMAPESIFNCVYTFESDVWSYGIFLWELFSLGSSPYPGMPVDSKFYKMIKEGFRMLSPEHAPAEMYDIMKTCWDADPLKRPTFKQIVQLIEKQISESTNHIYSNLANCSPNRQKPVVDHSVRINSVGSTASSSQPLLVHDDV
Procedure: In this assay, the oxidation of NADH (thus the decrease at A340 nm) was continuously monitored spectrophometrically. […] The inhibition reaction was started by mixing serial diluted test compound with the above reaction mixture. The absorption at 340 nm was monitored continuously for 4 hours at 30° C. on Synergy 2 plate reader (BioTech).

[2] = molecular target: T2, unphosphorylated PDGFRβ kinase (uPDGFRβ, Seq. ID No. 3) (Homo sapiens, UniProt P09619); assay: uPDGFRβ kinase assay (ADP production coupled to pyruvate kinase/lactate dehydrogenase); format: biochemical; conditions: enzymatic assay, ATP 500 μM
T2 construct: purchased DeCode
T2 sequence (P09619 557-1106): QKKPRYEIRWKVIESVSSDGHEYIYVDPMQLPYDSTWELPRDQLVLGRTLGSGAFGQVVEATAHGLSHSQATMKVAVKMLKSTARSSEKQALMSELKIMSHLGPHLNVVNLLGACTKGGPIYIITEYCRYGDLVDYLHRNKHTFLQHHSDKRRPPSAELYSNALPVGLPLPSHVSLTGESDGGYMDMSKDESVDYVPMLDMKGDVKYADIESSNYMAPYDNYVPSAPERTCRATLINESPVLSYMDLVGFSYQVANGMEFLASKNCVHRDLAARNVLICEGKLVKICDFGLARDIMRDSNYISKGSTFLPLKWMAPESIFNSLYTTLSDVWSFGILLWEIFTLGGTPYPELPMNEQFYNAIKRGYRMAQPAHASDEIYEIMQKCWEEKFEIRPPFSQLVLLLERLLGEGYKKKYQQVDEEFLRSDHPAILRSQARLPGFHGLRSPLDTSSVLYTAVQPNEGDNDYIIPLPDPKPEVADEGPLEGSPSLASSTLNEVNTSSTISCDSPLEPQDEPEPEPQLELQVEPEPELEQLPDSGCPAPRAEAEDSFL
Procedure: Unphosphorylated […]β) Kinase (Seq. ID No. 3) Assay Activity of unphosphorylated PDGFRβ kinase ([…] No. 3) was determined by following the production of ADP from the kinase reaction with ATP and poly E4Y as substrates through coupling with the pyruvate kinase/lactate dehydrogenase system (e.g., Schindler et al. Science (2000) 289: 1938-1942). In this assay, the oxidation of NADH (thus the decrease at A340 nm) was continuously monitored spectrophometrically. The reaction mixture (100 μL) contained PDGFRβ (DeCode, 15.7 nM), polyE4Y (2.5 mg/mL), MgCl2 (10 mM), pyruvate kinase (4 units), lactate dehydrogenase (0.7 units), phosphoenol pyruvate (1 mM) and NADH (0.28 mM) and ATP (500 μM) in a 90 mM Tris buffer containing 0.2% octyl-glucoside and 1% DMSO, at pH 7.5. The inhibition reaction was started by mixing serial diluted test compound with the above reaction mixture. The absorption at 340 nm was monitored continuously for 4 h at 30° C. on a Polarstar Optima or Synergy 2 plate reader. The reaction rate was calculated using the 1.5 to 2.5 h time frame. Percent inhibition was obtained by comparison of reaction rate with that of a control (i.e. with no test compound). IC50 values were calculated from a series of percent inhibition values determined at a range of inhibitor concentrations using software routines as implemented in the GraphPad Prism software package.

osteoclast precursors = assay: Osteoclast tartrate-resistant acid phosphatase assay; format: cell-based; conditions: tartrate-resistant acid phosphatase activity, RANKL and M-CSF, 7-14 days
Procedure: Osteoclast Tartrate-Resistant Acid Phosphatase Assay
A serial dilution of test compound was dispensed into a 384-well black clear bottom plate (Nalge Nunc International, Rochester, N.Y.). Compound was diluted by the addition of DMEM media supplemented with 10% characterized fetal bovine serum (Invitrogen, Carlsbad, Calif.). Diluted compound was transferred to a 384-well black clear bottom plate. Two-thousand five hundred osteoclast precursors (Lonza, Walkersville, Md.) were added per well in growth media containing Receptor Activator of Nuclear Factor Kappa-beta ligand (RANKL) and M-CSF (R&D Systems, Minneapolis, Minn.). Plates were incubated for 7-14 days at 37 degrees Celsius, 5% CO2, and 95% humidity to allow differentiation of osteoclast precursors. At the end of the incubation period, 10 μL of supernatant from each well was transferred to a clear 384-well plate. Tartrate-resistant acid phosphatase activity in the supernatant samples was determined using an acid phosphatase assay kit (Sigma, St. Louis, Mo.). Absorbance was measured at 550 nm using a plate reader. Data was analyzed using Prism software (Graphpad, San Diego, Calif.) to calculate IC50 values.

M-NFS-60 cells = assay: M-NFS-60 cell proliferation assay (resazurin); format: cell-based; conditions: 67 h incubation
Procedure: M-NFS-60 cells (catalog #CRL-1838) were obtained from the American Type Culture Collection (ATCC, Manassas, Va.). Briefly, cells were grown in suspension in RPMI 1640 medium supplemented with 10% characterized fetal bovine serum (Invitrogen, Carlsbad, Calif.), 0.05 mM 2-mercaptoethanol, and 20 ng/mL mouse recombinant macrophage colony stimulating factor (M-CSF) at 37° C., 5% CO2, and 95% humidity. Cells were allowed to expand until reaching saturation at which point they were subcultured or harvested for assay use.
M-NFS-60 Cell Proliferation Assay
A serial dilution of test compound was dispensed into a 384-well black clear bottom plate (Corning, Corning, N.Y.). Two thousand five hundred cells were added per well in 50 μL complete growth medium. Plates were incubated for 67 h at 37° C., 5% CO2, and 95% humidity. At the end of the incubation period 10 μL of a 440 µM solution of resazurin (Sigma, St. Louis, Mo.) in PBS was added to each well and incubated for an additional 5 h at 37° C., 5% CO2, and 95% humidity. Plates were read on a Synergy2 reader (Biotek, Winooski, Vt.) using an excitation of 540 nm and an emission of 600 nm. IC50 values were calculated from a series of percent inhibition values determined at a range of inhibitor concentrations using software routines as implemented in the GraphPad Prism software package.

Structure (SMILES): CCNc1ncc(-c2ccc(Oc3ccnc(-c4cnn(C)c4)c3)c(C)n2)c(=O)[nH]1 [Example 1, 2-(ethylamino)-5-(6-methyl-5-((2-(1-methyl-1H-pyrazol-4-yl)pyridin-4-yl)oxy)pyridin-2-yl)pyrimidin-4(3H)-one]
pIC50 ([1]; enzymatic assay, ATP 2000 μM): < 6.00
pIC50 [2]: < 6.00
pIC50 (osteoclast precursors): 7.00 to 8.00

Structure (SMILES): Cc1nc(-c2cnc(N(C)C)[nH]c2=O)ccc1Oc1ccnc(-c2cnn(C)c2)c1 [Example 2, 2-(dimethylamino)-5-(6-methyl-5-((2-(1-methyl-1H-pyrazol-4-yl)pyridin-4-yl)oxy)pyridin-2-yl)pyrimidin-4(3H)-one]
pIC50 ([1]; enzymatic assay, ATP 2000 μM): < 6.00
pIC50 [2]: < 6.00
pIC50 (osteoclast precursors): 7.00 to 8.00

Structure (SMILES): Cc1nc(-c2cnc(NC(C)C)[nH]c2=O)ccc1Oc1ccnc(-c2cnn(C)c2)c1 [Example 3, 2-(isopropylamino)-5-(6-methyl-5-((2-(1-methyl-1H-pyrazol-4-yl)pyridin-4-yl)oxy)pyridin-2-yl)pyrimidin-4(3H)-one]
pIC50 ([1]; enzymatic assay, ATP 2000 μM): 6.00 to 7.00
pIC50 [2]: < 6.00
pIC50 (osteoclast precursors): 7.00 to 8.00

Structure (SMILES): CCNc1ncc(-c2ccc(Oc3ccnc(-c4ccc(C)nc4)c3)c(C)n2)c(=O)[nH]1 [Example 4, 2-(ethylamino)-5-(6-methyl-5-((6′-methyl-[2,3′-bipyridin]-4-yl)oxy)pyridin-2-yl)pyrimidin-4(3H)-one]
pIC50 ([1]; enzymatic assay, ATP 2000 μM): < 6.00
pIC50 [2]: < 6.00
pIC50 (osteoclast precursors): 6.00 to 7.00

Structure (SMILES): CCNc1ncc(-c2ccc(Oc3ccnc(-n4cnc(C)c4)c3)c(C)n2)c(=O)[nH]1 [Example 5, 2-(ethylamino)-5-(6-methyl-5-((2-(4-methyl-1H-imidazol-1-yl)pyridin-4-yl)oxy)pyridin-2-yl)pyrimidin-4(3H)-one]
pIC50 ([1]; enzymatic assay, ATP 2000 μM): < 6.00
pIC50 [2]: < 6.00
pIC50 (osteoclast precursors): 6.00 to 7.00

pIC50 ([1]; enzymatic assay, ATP 2000 μM): 6.00 to 7.00
pIC50 [2]: < 6.00
pIC50 (osteoclast precursors): 7.00 to 8.00
Structure (SMILES): COCCNc1ncc(-c2ccc(Oc3ccnc(-c4cnn(C)c4)c3)c(C)n2)c(=O)[nH]1 [Example 6, 2-((2-methoxyethyl)amino)-5-(6-methyl-5-((2-(1-methyl-1H-pyrazol-4-yl)pyridin-4-yl)oxy)pyridin-2-yl)pyrimidin-4(3H)-one]
pIC50 (M-NFS-60 cells): 6.00 to 7.00

Structure (SMILES): CNc1ncc(-c2ccc(Oc3ccnc(-c4cnn(C)c4)c3)c(C)n2)c(=O)[nH]1 [Example 7, 5-(6-methyl-5-((2-(1-methyl-1H-pyrazol-4-yl)pyridin-4-yl)oxy)pyridin-2-yl)-2-(methylamino)pyrimidin-4(3H)-one]
pIC50 ([1]; enzymatic assay, ATP 2000 μM): 6.00 to 7.00
pIC50 [2]: < 6.00
pIC50 (osteoclast precursors): 6.00 to 7.00

Structure (SMILES): CCNc1ncc(-c2ccc(Oc3ccnc(-c4cnn(C)c4)c3)cn2)c(=O)[nH]1 [Example 8, 2-(ethylamino)-5-(5-((2-(1-methyl-1H-pyrazol-4-yl)pyridin-4-yl)oxy)pyridin-2-yl)pyrimidin-4(3H)-one]
pIC50 ([1]; enzymatic assay, ATP 2000 μM): 6.00 to 7.00
pIC50 [2]: < 6.00
pIC50 (osteoclast precursors): 6.00 to 7.00

Structure (SMILES): Cc1nc(-c2cnc(N3CCCC3)[nH]c2=O)ccc1Oc1ccnc(-c2cnn(C)c2)c1 [Example 9, 5-(6-methyl-5-((2-(1-methyl-1H-pyrazol-4-yl)pyridin-4-yl)oxy)pyridin-2-yl)-2-(pyrrolidin-1-yl)pyrimidin-4(3H)-one]
pIC50 [1]: < 6.00
pIC50 [2]: < 6.00
pIC50 (osteoclast precursors): 7.00 to 8.00

Structure (SMILES): CNC(=O)c1cc(Oc2ccc(-c3cnc(NC(C)C)[nH]c3=O)nc2)ccn1 [Example 11, 4-((6-(2-(isopropylamino)-6-oxo-1,6-dihydropyrimidin-5-yl)pyridin-3-yl)oxy)-N-methylpicolinamide]
pIC50 ([1]; enzymatic assay, ATP 2000 μM): < 6.00
pIC50 [2]: < 6.00
pIC50 (osteoclast precursors): 7.00 to 8.00

Structure (SMILES): Cc1nc(-c2cnc(N3CCOCC3)[nH]c2=O)ccc1Oc1ccnc(-c2cnn(C)c2)c1 [Example 12, 5-(6-methyl-5-((2-(1-methyl-1H-pyrazol-4-yl)pyridin-4-yl)oxy)pyridin-2-yl)-2-morpholinopyrimidin-4(3H)-one]
pIC50 ([1]; enzymatic assay, ATP 2000 μM): < 6.00
pIC50 [2]: < 6.00
pIC50 (osteoclast precursors): 7.00 to 8.00

Structure (SMILES): Cc1nc(-c2cnc(N3CCCCC3)[nH]c2=O)ccc1Oc1ccnc(-c2cnn(C)c2)c1 [Example 13, 5-(6-methyl-5-((2-(1-methyl-1H-pyrazol-4-yl)pyridin-4-yl)oxy)pyridin-2-yl)-2-(piperidin-1-yl)pyrimidin-4(3H)-one]
pIC50 ([1]; enzymatic assay, ATP 2000 μM): < 6.00
pIC50 [2]: < 6.00
pIC50 (osteoclast precursors): 7.00 to 8.00

Structure (SMILES): Cc1nc(-c2cnc(NC3CC3)[nH]c2=O)ccc1Oc1ccnc(-c2cnn(C)c2)c1 [Example 14, 2-(cyclopropylamino)-5-(6-methyl-5-((2-(1-methyl-1H-pyrazol-4-yl)pyridin-4-yl)oxy)pyridin-2-yl)pyrimidin-4(3H)-one]
pIC50 ([1]; enzymatic assay, ATP 2000 μM): < 6.00
pIC50 [2]: < 6.00
pIC50 (osteoclast precursors): 7.00 to 8.00

Structure (SMILES): Cc1nc(-c2cnc(NC3CCCC3)[nH]c2=O)ccc1Oc1ccnc(-c2cnn(C)c2)c1 [Example 15, 2-(cyclopentylamino)-5-(6-methyl-5-((2-(1-methyl-1H-pyrazol-4-yl)pyridin-4-yl)oxy)pyridin-2-yl)pyrimidin-4(3H)-one]
pIC50 ([1]; enzymatic assay, ATP 2000 μM): 6.00 to 7.00
pIC50 [2]: 6.00 to 7.00
pIC50 (osteoclast precursors): > 8.00

pIC50 ([1]; enzymatic assay, ATP 2000 μM): < 6.00
pIC50 [2]: 6.00 to 7.00
pIC50 (osteoclast precursors): > 8.00
Structure (SMILES): Cc1nc(-c2cnc(N3CCCC3)n(C)c2=O)ccc1Oc1ccnc(-c2cnn(C)c2)c1 [Example 16, 3-methyl-5-(6-methyl-5-((2-(1-methyl-1H-pyrazol-4-yl)pyridin-4-yl)oxy)pyridin-2-yl)-2-(pyrrolidin-1-yl)pyrimidin-4(3H)-one]
pIC50 (M-NFS-60 cells): > 8.00

Structure (SMILES): Cc1nc(-c2cnc(NC3CC3)n(C)c2=O)ccc1Oc1ccnc(-c2cnn(C)c2)c1 [Example 17, 2-(cyclopropylamino)-3-methyl-5-(6-methyl-5-((2-(1-methyl-1H-pyrazol-4-yl)pyridin-4-yl)oxy)pyridin-2-yl)pyrimidin-4(3H)-one]
pIC50 ([1]; enzymatic assay, ATP 2000 μM): < 6.00
pIC50 [2]: < 6.00
pIC50 (osteoclast precursors): > 8.00

Structure (SMILES): CC(=O)Nc1cc(Oc2ccc(-c3cnc(NC(C)C)[nH]c3=O)nc2C)ccn1 [Example 19, N-(4-((6-(2-(isopropylamino)-6-oxo-1,6-dihydropyrimidin-5-yl)-2-methylpyridin-3-yl)oxy)pyridin-2-yl)acetamide]
pIC50 ([1]; enzymatic assay, ATP 2000 μM): 6.00 to 7.00
pIC50 [2]: 6.00 to 7.00
pIC50 (osteoclast precursors): 7.00 to 8.00

Structure (SMILES): Cc1cc(-c2cnc(N3CCCC3)[nH]c2=O)ncc1Oc1ccnc(-c2cnn(C)c2)c1 [Example 20, 5-(4-methyl-5-((2-(1-methyl-1H-pyrazol-4-yl)pyridin-4-yl)oxy)pyridin-2-yl)-2-(pyrrolidin-1-yl)pyrimidin-4(3H)-one]
pIC50 ([1]; enzymatic assay, ATP 2000 μM): 6.00 to 7.00
pIC50 [2]: 6.00 to 7.00
pIC50 (osteoclast precursors): > 8.00

Structure (SMILES): CCn1cc(-c2cc(Oc3ccc(-c4cnc(NC(C)C)[nH]c4=O)nc3C)ccn2)cn1 [Example 21, 5-(5-((2-(1-ethyl-1H-pyrazol-4-yl)pyridin-4-yl)oxy)-6-methylpyridin-2-yl)-2-(isopropylamino)pyrimidin-4(3H)-one]
pIC50 ([1]; enzymatic assay, ATP 2000 μM): < 6.00
pIC50 [2]: < 6.00
pIC50 (osteoclast precursors): 7.00 to 8.00

Structure (SMILES): Cc1nc(-c2cnc(NC3CCOCC3)[nH]c2=O)ccc1Oc1ccnc(-c2cnn(C)c2)c1 [Example 27, 5-(6-methyl-5-((2-(1-methyl-1H-pyrazol-4-yl)pyridin-4-yl)oxy)pyridin-2-yl)-2-((tetrahydro-2H-pyran-4-yl)amino)pyrimidin-4(3H)-one]
pIC50 ([1]; enzymatic assay, ATP 2000 μM): < 6.00
pIC50 [2]: < 6.00
pIC50 (osteoclast precursors): 7.00 to 8.00
